Test results published in patent publication US20050119281A1, “Powder composition comprising zaleplon of defined particle size distribution and pharmaceutical products made therefrom” (Biogal Gyogyszergyar Rt, priority 2002, published 2005).

Experiment: Particle size distribution of zaleplon particles by laser diffraction (Malvern Mastersizer)
Type: physicochemical
Conditions: suspended in hexane with 1% Tween 80, sonicated 120 seconds
Method: In accordance with the invention, the size distribution of zaleplon particles is determined by laser diffraction. Our method of determining the size of zaleplon particles used a Malvern™ Mastersizer laser diffraction instrument. Samples of the zaleplon were suspended in hexane containing a surfactant, 1% Tween® 80. The suspensions were mixed and then sonicated for 120 seconds to thoroughly disperse the zaleplon particles. The dispersion was then circulated in the flow cell of the Malvern Mastersizer for two minutes before particle size measurements were taken.

| Structure (SMILES) | diameter that 10% of the particles are equal to or less than [μm] | diameter that 90% of the particles are equal to or less than [μm] | median particle size [μm] |
| --- | --- | --- | --- |
| CCN(C(C)=O)c1cccc(-c2ccnc3c(C#N)cnn23)c1 [Zaleplon, N-[3-(3-cyanopyrazolo[1,5-a]pyrimidin-7-yl)phenyl]-N-ethylacetamide] | 14 | 134 | 55 |
| CCN(C(C)=O)c1cccc(-c2ccnc3c(C#N)cnn23)c1 [micronized zaleplon, N-[3-(3-cyanopyrazolo[1,5-a]pyrimidin-7-yl)phenyl]-N-ethylacetamide] |  | 15.1 | 6.3 |
| CCN(C(C)=O)c1cccc(-c2ccnc3c(C#N)cnn23)c1 [milled zaleplon, N-[3-(3-cyanopyrazolo[1,5-a]pyrimidin-7-yl)phenyl]-N-ethylacetamide] | 8.3 | 84.6 | 37.0 |
